In experiment [1] the target is PI3Kα (Homo sapiens (Human), UniProt P42336). Nature of the experiment: Test 1: PI3 Kinase Assay (PI3K KinaseGlo assay). The class given is biochemical. Particulars: 1 μM ATP.
Experimental: L-a-phosphatidylinositol (PI), provided as 10 mg/ml solution in methanol, was transferred into a glass tube and dried under nitrogen beam. It was then resuspended in 3% OctylGlucoside (OG) by vortexing and stored at 4° C. The KinaseGlo Luminescent Kinase Assay (Promega, Madison/WI, USA) is a homogeneous HTS method of measuring kinase activity by quantifying the amount of ATP remaining in solution following a kinase reaction.
Kinase reactions were started by addition of 5 μl of ATP-mix containing in a final volume 10 μL 10 mM TRIS-HCl pH 7.5, 3 mM MgCl2, 50 mM NaCl, 0.05% CHAPS, 1 mM DTT and 1 μM ATP, and occurred at room temperature.
The PI3Kα construct is a fusion of p85α iSH2 domain and the respective p110 isoform. The p85α fragment and p110 isoform gene were generated by PCR from first strand cDNA generated by RT-PCR from commercial RNA from placenta, testis and brain as described below.
The p85 fragment was derived from plasmid p1661-2 digested with Nhe/Spe. The p110α fragment derived from its clone was verified by sequencing and used in LR410 as a SpeI/HindIII fragment. For the generation of the baculovirus expression vector LR410 the gateway LR reaction to transfer the insert into the Gateway adapted pBlueBac4.5 (Invitrogen) vector was used. The cloning vector pBlueBac4.5 (Invitrogen) was digested with Nhe/HindIII. […] The two reverse primers overlap and incorporate a 12×Gly linker and the N-terminal sequence of the p110α gene to the SpeI site. The PCR fragment was cloned into pCR2.1 TOPO (Invitrogen). Of the resulting clones, p1661-2 was determined to be correct by sequencing. This plasmid was digested with Nhe and SpeI and the resulting fragment was gel-isolated and purified for sub-cloning.
PI3Kα was purified in two chromatographic steps: immobilized metal affinity chromatography (IMAC) on a Ni sepharose resin (GE Healthcare) and gel filtration utilizing a Superdex 200 26/60 column (GE Healthcare). All buffers were chilled to 4° C. and lysis was performed chilled on ice. Column fractionation was performed at room temperature.
The subject of experiment [2] is constitutively active mTOR. Description: Test 3: TSC Assay (high content imaging of phospho-S6 (240/244) in TSC1−/− MEFs). Type of experiment: cell-based. Conditions: Mus musculus, pS6 240/244 staining, 2 hrs compound treatment.
Experimental: This assay generates IC50 values for compounds that inhibit mTOR.
Quantification of pS6 Staining Using High-Content Imaging and Analysis
Day 0: Cell plating. Subconfluent TSC1−/− MEFs are harvested by trypsinization, resuspended in growth medium, and counted. […] The plates are briefly spun down and placed at 37° C. and 5% CO2. • 2. Day 1: Cell plates are washed into a PBS starve solution (contains glucose, sodium bicarbonate, HEPES and phenol red) using a 384-well plate washer. The wash protocol aspirates the volume down to 30 μL/well before dispensing 60 μL/well of the PBS starve solution. Aspiration and dispensing steps are repeated 8 times and a final volume of 30 μL/well is left. The cell plates are placed at 37° C. and 5% CO2 for 2 hrs. • Compound treatment. Compound dose responses are prepared in DMSO. The dose responses are then diluted 1:50 in medium. 10 ul of the diluted compound is added to 30 ul of cells, yielding a final 1:200 dilution of the original compound and final of 0.5% DMSO. Compound-treatments are performed in triplicates. The plates are placed at 37° C. and 5% CO2 for 2 hrs. Cells are then fixed by adding 10 μL/well 5× concentrated Mirsky's fixative. […] The cell plates are briefly spun down and incubated for 1 h at room temperature. Cells are then washed using a 384-well plate washer using a protocol which aspirates the volume down to 30 μL/well before dispensing 60 μL/well 1×TBS. Aspiration and dispensing steps are repeated 8 times and then an additional aspiration step leaves a final volume of 10 μL/well. Block buffer (1×TBS+0.1% Triton X-100+0.1% BSA) is then added at 25 μL/well and the plates are incubated at room temperature for 30 min. The cell plates are then aspirated down to 10 μL/well. […] Plates are incubated overnight at 4° C. • 3. […] The bottom of the plate is cleaned with 70% ethanol and then imaged using the InCell 1000 automated epifluorescence microscope. […] Cy5 images are acquired using an excitation of 620 nm (Chroma 620—60× filter), an emission of 700 nm (Chroma HQ700—75M filter) and an exposure time of 200 ms. A double band pass mirror is used for all images. • 4. Image analysis: The InCell Analysis software is used to analyze the images using the Dual Object algorithm. […] The Cy5 fluorescence intensity inside the collar is measured (cell intensity) and results are reported on an “Average per cell” basis. • 5. IC50 calculation: IC50s are calculated by plotting the cell intensity values on the y-axis with dose response values on the x-axis. IC50 values represent compound potency against mTOR.
Experiment [3] deals with FRAP1/mTOR (Homo sapiens (Human), UniProt P42345). Description: Test 2: mTOR Biochemical Assay (FRAP1/mTOR TR-FRET tracer assay). The class given is binding. Conditions: mTOR Kinase Tracer 314.
Sequence of FRAP1/mTOR (P42345 1360-2549): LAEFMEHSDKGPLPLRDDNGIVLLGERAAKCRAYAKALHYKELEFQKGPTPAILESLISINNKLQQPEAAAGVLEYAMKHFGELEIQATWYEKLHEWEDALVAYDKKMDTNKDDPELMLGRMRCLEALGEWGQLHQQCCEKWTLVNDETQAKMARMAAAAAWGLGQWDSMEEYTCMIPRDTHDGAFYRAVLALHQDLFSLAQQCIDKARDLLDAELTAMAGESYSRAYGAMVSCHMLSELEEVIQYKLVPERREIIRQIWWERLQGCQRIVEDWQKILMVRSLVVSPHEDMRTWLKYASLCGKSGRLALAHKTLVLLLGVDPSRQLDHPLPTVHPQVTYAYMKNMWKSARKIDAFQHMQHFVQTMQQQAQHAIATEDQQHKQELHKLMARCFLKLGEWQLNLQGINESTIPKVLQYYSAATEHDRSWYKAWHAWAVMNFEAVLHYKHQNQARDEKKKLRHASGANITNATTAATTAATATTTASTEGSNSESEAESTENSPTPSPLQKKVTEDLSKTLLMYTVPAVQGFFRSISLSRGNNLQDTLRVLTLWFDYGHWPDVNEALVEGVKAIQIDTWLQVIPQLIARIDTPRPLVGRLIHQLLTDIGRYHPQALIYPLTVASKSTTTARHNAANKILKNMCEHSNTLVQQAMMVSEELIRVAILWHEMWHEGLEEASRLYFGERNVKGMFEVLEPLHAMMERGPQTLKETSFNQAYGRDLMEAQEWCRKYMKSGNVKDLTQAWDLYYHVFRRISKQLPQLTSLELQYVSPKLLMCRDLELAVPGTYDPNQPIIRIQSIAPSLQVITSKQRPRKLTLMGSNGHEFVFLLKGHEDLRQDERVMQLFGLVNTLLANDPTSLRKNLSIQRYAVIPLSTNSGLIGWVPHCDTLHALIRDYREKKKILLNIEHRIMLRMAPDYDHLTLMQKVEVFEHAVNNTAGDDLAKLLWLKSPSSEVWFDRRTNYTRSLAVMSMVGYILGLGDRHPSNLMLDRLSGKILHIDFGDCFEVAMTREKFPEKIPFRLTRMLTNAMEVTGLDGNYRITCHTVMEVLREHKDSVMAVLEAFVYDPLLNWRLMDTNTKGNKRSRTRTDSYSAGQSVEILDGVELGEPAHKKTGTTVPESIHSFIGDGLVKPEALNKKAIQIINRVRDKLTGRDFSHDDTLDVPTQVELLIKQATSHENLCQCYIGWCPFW
Experimental: IC50s for mTOR interacting compounds were assessed using the FRAP1/mTOR TR-FRET tracer assay (Invitrogen by Life Technologies). […] Compounds were serially diluted in DMSO (12-point, 4× dilution factor) and 1 μL of diluted compound was then added to each well and mixed by pipetting using a Biomek FX (Beckman Coulter).
For experiment [4], the system named is H4 mCherry-GFP-LC3 cells. Description: Test 4: Autophagy Assay (mCherry-GFP-LC3 reporter, high-content imaging). Conditions: Homo sapiens, Table 1, mCherry-positive LC3 puncta/cell, 16-18 h. Type of experiment: cell-based. From the text: Autophagy is a catabolic pathway that degrades bulk cytosol in lysosomal compartments enabling amino acids and fatty acids to be recycled. […] To quantify autophagy induction by mTOR inhibitors, we use a mCherry-GFP-LC3 reporter which is amenable to retroviral delivery into mammalian cells, stable expression and analysis by fluorescence microscopy.
Described hereinafter is an imaging protocol and image recognition algorithm to visualize and measure changes in the autophagic pathway.
Quantification of Autophagy Using High-Content Imaging and Analysis
• 1. Day 0: Cell plating. Subconfluent H4 mCherry-GFP-LC3 cells are harvested by trypsinization, resuspended in growth medium, and counted (H4 cells: Human neuroglioma cell line (ATCC)). A cell suspension of 66′000 cells/mL is prepared and 30 μL are added into the wells of a 384-well plate using an electronic multichannel pipette. […] The cell plates are briefly spun down and placed at 37° C. and 5% CO2. • 2. Day 1: Compound treatment. Compound dose responses are prepared in DMSO. The dose responses are then diluted 1:50 in medium. 10 ul of the diluted compound is added to 30 ul of cells, yielding a final 1:200 dilution of the original compound and final of 0.5% DMSO. Compound-treatments are performed in triplicates. The 384-well plates are placed at 37° C. and 5% CO2. Compound treatment is performed for 16-18 h (see Note 1). • 3. Day 2: Cell fixation. Cells are fixed by adding 10 μL/well 5× concentrated Mirsky's fixative supplemented with 25 μg/mL Hoechst33342. […] The 384-well plate is briefly spun down and incubated for 1 h at room temperature. Cells are then washed using a 384-well plate washer using a protocol which aspirates the volume down to 10 μL/well before dispensing 100 μL/well 1×TBS. Aspiration and dispensing steps are repeated 4 times and a final volume of 100 μL/well is left. The plate is sealed using an adhesive PCR foil. • 4. Imaging. The bottom of the plate is cleaned with 70% ethanol and then imaged using the InCell 1000 automated epifluorescence microscope. 20× magnification is used and 4 different areas (fields) are imaged per well, this typically captures a total of around 400 cells per well. Hoechst33342 images are acquired using an excitation of 360 nm (D360—40× filter), an emission of 460 nm (HQ460—40M filter) and an exposure time of 150 ms. GFP images are acquired using an excitation of 475 nm (S47520× filter), an emission of 535 nm (HQ535—50M filter) and an exposure time of 1 s. mCherry images are acquired using an excitation of 535 nm (HQ535—50× filter), an emission of 620 nm (HQ620—60M filter) and an exposure time of 1 s. A quadruple band pass mirror is used for all images. • 5. Image analysis. The InCell Analysis software is used to analyze the images using the Multi Target Analysis algorithm. First, nuclei are detected in the Hoechst33342 image using top-hat segmentation and a minimal nuclear area of 50 μm^2. Cells are defined using a collar of 10 μm around the nuclei. Second, puncta (organelles) are identified in the mCherry image inside the cells using multi-top-hat segmentation. Third, the mask of the mCherry puncta is transferred onto the GFP image. Fourth, the GFP fluorescence intensity inside the mCherry puncta mask is measured (reference intensity). • 6. The ‘organelles’ parameter reflects mCherry-positive puncta of the mCherry-GFP-LC3 reporter and is used to calculate ‘LC3 puncta/cell’. For this purpose, the number of organelles is calculated per cell and averaged over all the cells in a given well (average per cell basis). mCherry-positive LC3 puncta numbers (y-axis) are plotted against the compound dose response values (x-axis) and EC50 values are calculated for each compound. EC50 values represent compound potency in terms of autophagy activation (e.g. increase in mCherry-positive LC3 puncta count). Notes • 1. Autophagy-modulation and redistribution of mCherry-GFP-LC3 can be already observed after a compound treatment time of 3-4 h. […]

Sequence of PI3Kα (P42336 other isoform, or with tags, fused parts or gaps): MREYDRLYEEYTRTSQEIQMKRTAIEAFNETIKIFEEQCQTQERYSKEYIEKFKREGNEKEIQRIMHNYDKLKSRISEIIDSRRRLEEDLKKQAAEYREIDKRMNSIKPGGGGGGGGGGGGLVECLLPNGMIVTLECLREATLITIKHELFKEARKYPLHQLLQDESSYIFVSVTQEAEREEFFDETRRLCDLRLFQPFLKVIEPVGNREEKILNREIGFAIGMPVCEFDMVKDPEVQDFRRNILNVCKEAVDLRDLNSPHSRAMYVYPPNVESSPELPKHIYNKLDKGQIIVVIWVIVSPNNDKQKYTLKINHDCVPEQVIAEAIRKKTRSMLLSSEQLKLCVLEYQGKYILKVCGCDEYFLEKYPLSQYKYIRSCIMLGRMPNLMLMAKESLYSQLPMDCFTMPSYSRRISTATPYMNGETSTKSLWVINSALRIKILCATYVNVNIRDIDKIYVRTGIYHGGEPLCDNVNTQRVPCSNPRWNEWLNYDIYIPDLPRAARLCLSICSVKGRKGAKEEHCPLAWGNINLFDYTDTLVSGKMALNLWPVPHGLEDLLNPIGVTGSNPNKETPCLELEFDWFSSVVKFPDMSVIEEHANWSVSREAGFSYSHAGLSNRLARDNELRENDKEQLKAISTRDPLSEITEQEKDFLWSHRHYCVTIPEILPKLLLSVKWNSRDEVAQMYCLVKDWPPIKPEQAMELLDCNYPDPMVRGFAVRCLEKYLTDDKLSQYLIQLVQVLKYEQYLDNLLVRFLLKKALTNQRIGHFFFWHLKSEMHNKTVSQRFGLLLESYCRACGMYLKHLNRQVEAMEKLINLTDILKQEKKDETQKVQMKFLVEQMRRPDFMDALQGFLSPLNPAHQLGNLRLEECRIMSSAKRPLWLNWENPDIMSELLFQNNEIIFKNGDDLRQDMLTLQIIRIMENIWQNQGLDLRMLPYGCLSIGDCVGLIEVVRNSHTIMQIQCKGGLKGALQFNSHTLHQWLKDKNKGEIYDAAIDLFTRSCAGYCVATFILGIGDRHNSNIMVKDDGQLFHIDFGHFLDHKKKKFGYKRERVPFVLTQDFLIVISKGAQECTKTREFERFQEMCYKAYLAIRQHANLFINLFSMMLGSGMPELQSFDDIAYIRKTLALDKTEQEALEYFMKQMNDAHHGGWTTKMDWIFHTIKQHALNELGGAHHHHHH

Regarding `C[C@@H]1CN(c2nc(N3CCOCC3)c3nc(-c4cccc(O)c4)[nH]c3n2)C[C@H](C)O1` [Example 1, 3-[2-((2S,6R)-2,6-Dimethyl-morpholin-4-yl)-6-morpholin-4-yl-9H-purin-8-yl]-phenol], the values for the half-maximal inhibitory concentration (IC50) in experiment [1] and in experiment [2] were 20 nM and 118 nM, respectively.
Take `Oc1cccc(-c2cc3c(N4CCOCC4)nc(N4CCOCC4)nc3[nH]2)c1` [Example 2, 3-(2,4-Di-morpholin-4-yl-7H-pyrrolo[2,3-d]pyrimidin-6-yl)-phenol]: the IC50 in experiment [1] was determined as 1060 nM; in experiment [2] it was 300 nM; in experiment [3], 40 nM. The compound also showed a half-maximal effective concentration (EC50) in experiment [4] of 363 nM.
With `C[C@H]1COCCN1c1nc(N2CCOC[C@@H]2C)c2nc(-c3ccnc4[nH]ccc34)[nH]c2n1` [Example 3, 2,6-Bis-((S)-3-methyl-morpholin-4-yl)-8-(1H-pyrrolo[2,3-b]pyridin-4-yl)-9H-purine], the IC50 in experiment [1] was 6530 nM; in experiment [2], 2320 nM; in experiment [3] it was 510 nM. In experiment [4], the EC50 is more than 2000 nM.
With `C[C@H]1COCCN1c1nc(N2CCOCC2)nc2[nH]c(-c3ccc(F)c(CO)c3)nc12` [Example 4, {2-Fluoro-5-[6-((S)-3-methyl-morpholin-4-yl)-2-morpholin-4-yl-9H-purin-8-yl]-phenyl}-methanol], the IC50 in experiment [1] amounted to 1800 nM; in experiment [2], 1860 nM; in experiment [3], 1420 nM. In addition, the EC50 in experiment [4] was determined as 1550 nM.
Take `C[C@H]1COCCN1c1nc(N2CCC(F)(F)CC2)nc2[nH]c(-c3cccc4[nH]ccc34)nc12` [Example 5, 2-(4,4-Difluoro-piperidin-1-yl)-8-(1H-indol-4-yl)-6-((S)-3-methyl-morpholin-4-yl)-9H-purine]: the results for the IC50 in experiment [1], in experiment [2] and in experiment [3] were more than 9100 nM, 551 nM and 150 nM, respectively. Besides, in experiment [4], the EC50 was 2590 nM.
Consider `C[C@H]1COCCN1c1nc(N2CCOC[C@@H]2C)c2nc(-c3ccc4[nH]c(=O)[nH]c4c3)[nH]c2n1` [Example 6, 5-[2,6-Bis-((S)-3-methyl-morpholin-4-yl)-9H-purin-8-yl]-1,3-dihydro-benzoimidazol-2-one], for which the IC50 in experiment [1] is more than 9100 nM; in experiment [2], 1450 nM; in experiment [3] it was 30 nM.
As to `COc1ccc(-c2nc3c(N4CCOC[C@@H]4C)nc(N4CCOC[C@@H]4C)nc3[nH]2)cc1CO` [Example 7, {5-[2,6-Bis-((S)-3-methyl-morpholin-4-yl)-9H-purin-8-yl]-2-methoxy-phenyl}-methanol], the IC50 in experiment [1] was 2540 nM; in experiment [2] it was 455 nM.
Turning to `c1cc(-c2nc3c(N4CC5CCC(C4)O5)nc(N4CCOCC4)nc3[nH]2)c2cc[nH]c2c1` [Example 8, 8-(1H-Indol-4-yl)-2-morpholin-4-yl-6-(8-oxa-3-aza-bicyclo[3.2.1]oct-3-yl)-9H-purine], the values for the IC50 in experiment [1], in experiment [2] and in experiment [3] were more than 9100 nM, 127 nM and 41 nM, respectively. For the same compound, the midpoint of the response in experiment [4], the EC50, lay at 731 nM.
On to `COc1ccc(-c2nc3c(N4CCOC[C@@H]4C)nc(N4CCOCC4)nc3[nH]2)cc1C(=O)O` [Example 9, 2-Methoxy-5-[6-((S)-3-methyl-morpholin-4-yl)-2-morpholin-4-yl-9H-purin-8-yl]-benzoic acid], for which the results for the IC50 in experiment [1], in experiment [2] and in experiment [3] were more than 9100 nM, 7300 nM and 3200 nM, respectively. Also, in experiment [4], the EC50 is more than 10000 nM.
Taken in the same sequence, the figures for `C[C@H]1COCCN1c1nc(N2CCOCC2)nc2[nH]c(-c3cc(CO)ccc3Cl)nc12` [Example 10, {4-Chloro-3-[6-((S)-3-methyl-morpholin-4-yl)-2-morpholin-4-yl-9H-purin-8-yl]-phenyl}-methanol] were 720 nM, 5720 nM, 1840 nM and more than 10000 nM.
As to `NCc1cccc(-c2nc3c(N4CCOCC4)nc(N4CCOCC4)nc3[nH]2)c1` [Example 11, 3-(2,6-Di-morpholin-4-yl-9H-purin-8-yl)-benzylamine], the results for the IC50 in experiment [1], in experiment [2] and in experiment [3] were 8140 nM, 6020 nM and 2420 nM, respectively. In experiment [4], this compound came in with an EC50 of more than 2000 nM.
Taken in the same sequence, the figures for `CC(O)c1cccc(-c2nc3c(N4CCOC[C@@H]4C)nc(N4CCOCC4)nc3[nH]2)c1` (stereo partly drawn) [Example 12, 1-{3-[6-((S)-3-Methyl-morpholin-4-yl)-2-morpholin-4-yl-9H-purin-8-yl]-phenyl}-ethanol] were 2870 nM, 1960 nM, 2020 nM and more than 10000 nM.
Taken in the same sequence, the figures for `c1cc2ncc(-c3nc4c(N5CCOCC5)nc(N5CCOCC5)nc4[nH]3)cc2[nH]1` [Example 13, 2,6-Di-morpholin-4-yl-8-(1H-pyrrolo[3,2-b]pyridin-6-yl)-9H-purine] were 430 nM, 2780 nM, 469 nM and 8530 nM.
Turning to `C[C@H]1COCCN1c1nc(N2CCOCC2)nc2[nH]c(-c3ccc4cc[nH]c4c3)nc12` [Example 24, 8-(1H-Indol-6-yl)-6-((S)-3-methyl-morpholin-4-yl)-2-morpholin-4-yl-9H-purine], the IC50 in experiment [1] was determined as 8540 nM; in experiment [2], 632 nM; in experiment [3], 85 nM.
Consider `Cc1cc2c(-c3nc4c(N5CCOCC5)nc(N5CCOCC5)nc4[nH]3)cccc2[nH]1` [Example 31, 8-(2-Methyl-1H-indol-4-yl)-2,6-di-morpholin-4-yl-9H-purine], for which the IC50 in experiment [1] came out at 590 nM; in experiment [2], 315 nM.
As for `C[C@@H]1CN(c2nc(N3CCOCC3)c3nc(-c4cccc(N)c4)[nH]c3n2)C[C@H](C)O1` [Example 32, 3-[2-((2S,6R)-2,6-Dimethyl-morpholin-4-yl)-6-morpholin-4-yl-9H-purin-8-yl]-phenylamine], the IC50 in experiment [1] stood at 2520 nM; in experiment [2], 1040 nM; in experiment [3] it was 1040 nM.
On to `C[C@@H]1CN(c2nc(N3CCOCC3)c3nc(-c4ccccc4CO)[nH]c3n2)C[C@H](C)O1` [Example 34, {2-[2-((2S,6R)-2,6-Dimethyl-morpholin-4-yl)-6-morpholin-4-yl-9H-purin-8-yl]-phenyl}-methanol], for which the IC50 was more than 9100 nM in experiment [1] and 8000 nM in experiment [2].
Take `OCc1ccccc1-c1nc2c(N3CCOCC3)nc(N3CCOCC3)nc2[nH]1` [Example 35, [2-(2,6-Di-morpholin-4-yl-9H-purin-8-yl)-phenyl]-methanol]: the IC50 came to 5870 nM in experiment [1] and 4010 nM in experiment [2].
With `Oc1cccc(-c2nc3c(N4CCOCC4)nc(N4CCOCC4)nc3[nH]2)c1` [Example 36, 3-(2,6-Di-morpholin-4-yl-9H-purin-8-yl)-phenol], the figures for the IC50 in experiment [1] and in experiment [2] were 20 nM and 73 nM, respectively.
Taken in the same sequence, the figures for `OCc1cccc(-c2nc3c(N4CCOCC4)nc(N4CCOCC4)nc3[nH]2)c1` [Example 37, [3-(2,6-Di-morpholin-4-yl-9H-purin-8-yl)-phenyl]-methanol] were 10 nM and 620 nM.
For the compound `Oc1ccccc1-c1nc2c(N3CCOCC3)nc(N3CCOCC3)nc2[nH]1` [Example 38, 2-(2,6-Di-morpholin-4-yl-9H-purin-8-yl)-phenol], the values for the IC50 in experiment [1] and in experiment [2] were 480 nM and more than 50000 nM, respectively.

(Values after US8987257B2 (Novartis AG, priority 2011, dated 2015).)
